According to the Kinase Knowledgebase extract (Sharma et al. 2016):

molecular target: MAPK14 (human) (UniProt Q16539); assay: Inhibition of MAPK14 Kinase Activity
Sequence (Q16539 whole entry, looked up): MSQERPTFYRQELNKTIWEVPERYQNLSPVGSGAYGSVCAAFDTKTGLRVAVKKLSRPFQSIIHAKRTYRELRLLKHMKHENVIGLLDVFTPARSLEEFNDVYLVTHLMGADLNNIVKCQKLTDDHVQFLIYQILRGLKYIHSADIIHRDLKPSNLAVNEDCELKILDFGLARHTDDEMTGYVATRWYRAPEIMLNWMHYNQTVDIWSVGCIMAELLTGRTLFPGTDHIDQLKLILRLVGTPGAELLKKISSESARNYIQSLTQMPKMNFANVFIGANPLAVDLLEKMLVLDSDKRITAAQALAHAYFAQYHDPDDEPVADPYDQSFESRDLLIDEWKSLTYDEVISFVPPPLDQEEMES

Structure (SMILES)	IC50
CC(C)Cn1c(N)nc2ccc(-c3oc(C(C)(C)C)nc3-c3ccc(F)cc3F)cc21	≤ 5 µM
Clc1ccc(-c2nc(-c3ccccc3)c(-c3ccc4ncn(CC5CC5)c4c3)[nH]2)cc1	≤ 5 µM
C[C@H](n1c(N)nc2ccc(-c3[nH]c(-c4c(F)cccc4Cl)nc3-c3ccccc3)cc21)C(C)(C)C	≤ 5 µM
CC(C)Cn1cnc2ccc(-c3c(-c4ccccc4)ncn3C3CCCCC3)cc21	≤ 5 µM
Cc1ccsc1-c1nc(-c2ccc3nc(N)n(CC(C)C)c3c2)c(-c2ccccc2)[nH]1	≤ 5 µM
C[C@@H](n1c(N)nc2ccc(-c3[nH]c(-c4c(Cl)cccc4Cl)nc3-c3ccccc3)cc21)C(C)(C)C	≤ 5 µM
CC(C)Cn1c(N)nc2ccc(-c3[nH]c(C(C)C)nc3-c3ccccc3)cc21	≤ 5 µM
CC(n1c(N)nc2ccc(-c3[nH]c(-c4c(F)cccc4F)nc3-c3ccccc3)cc21)C(C)(C)C (stereo not given)	≤ 5 µM
Cc1nc(-c2ccc(F)cc2F)c(-c2ccc3nc(N)n(C(C)C(C)C)c3c2)[nH]1 (stereo not given)	≤ 5 µM
c1ccc(-c2nc(-c3ccc(OCCN4CCCCC4)cc3)[nH]c2-c2ccc3ncn(CC4CC4)c3c2)cc1	≤ 5 µM
CC(C)n1c(N)nc2ccc(-c3[nH]c(-c4c(F)cccc4F)nc3-c3ccccc3)cc21	≤ 5 µM
CC(C)Cn1c(N)nc2ccc(-c3nc(-c4c(Cl)cccc4Cl)[nH]c3-c3ccccc3)cc21	≤ 5 µM
CC(C)(C)Cn1c(N)nc2ccc(-c3[nH]c(-c4c(F)cccc4Cl)nc3-c3ccccc3)cc21	≤ 5 µM
C[C@@H](n1c(N)nc2ccc(-c3[nH]c(-c4c(F)cccc4F)nc3-c3ccccc3)cc21)C(C)(C)C	≤ 5 µM
Cc1nc(-c2ccc(F)cc2F)c(-c2ccc3nc(N)n(CC(C)C)c3c2)[nH]1	≤ 5 µM
Cc1nc2ccc(-c3cn[nH]c3-c3ccc(F)cc3)cc2n1CC(C)C	≤ 5 µM
CC(C)Cn1c(N)nc2ccc(-c3[nH]c(-c4ccc(Cl)cc4)nc3-c3ccccc3)cc21	≤ 5 µM
CC(C)Cn1c(N)nc2ccc(-c3[nH]c(-c4ccc(Cl)cc4)nc3-c3ccc(F)cc3)cc21	≤ 5 µM
Nc1nc2ccc(-c3nc(C4CC4)[nH]c3-c3ccc(F)cc3F)cc2n1CC1CC1	≤ 5 µM
CC(C)Cn1c(N)nc2ccc(-c3c(-c4ccc(F)cc4)ncn3C)cc21	≤ 5 µM
